One assay has as its system HT-29. The experiment in a line: MTT viability assay, HT-29. The assay is classed as cell-based, human. Particulars: TP53 mutant, mean of six replicates of one experiment, read-out: IC50 Cancer Cell Lines (C) HT-29. How it is done:
(§1) HCT-116 (CCL-247), LoVo (CCL-229), DLD-1 (CCL-221), HT-29 (HTB-38) and CoN (CCD-841) human CRC cells were obtained from the ATCC (Manassas, VA, USA). HCT-116 cells were cultured in Dulbecco’s Modified Eagle’s Medium (DMEM; Corning Cellgro, Corning, NY, USA) for the invasion assays or RPMI-1640 medium (Lonza, Westburg, The Netherlands) for all other assays. The LoVo, DLD-1, and HT-29 cell lines were grown in RPMI-1640 for all experiments. Media were supplemented with 10% fetal bovine serum (FBS; Gibco, Waltham, MA, USA or Greiner Bio-One, Vilvoorde, Belgium), 100 U/mL penicillin, and 100 µg/mL streptomycin (Gibco, Waltham, MA). Cells were grown at 37 °C and 5% CO2 in a humidified atmosphere. The CoN cells were cultured in Eagle’s Minimum Essential Medium (Lonza, Westburg, The Netherlands) supplemented with 10% FBS (South America origin, Greiner Bio-One, Vilvoorde, Belgium). HCT-116 p53^-/- cells were obtained from Denis L.J. LaFontaine, Université Libre de Bruxelles, Brussels, Belgium.
(§2) Effects of compounds on viability were assessed by means of 3-(4,5-dimethylthiazol-2-yl)-2,5-diphenyltetrazolium bromide (MTT; Sigma-Aldrich, Diegem, Belgium) colorimetric assay as previously reported. Briefly, cells were seeded in flat-bottom 96-well plates at the appropriate cell density 24 h prior to the exposure or not to the compound of interest. Each compound was first solubilized in dimethylsulfoxide (DMSO) at 10^−2 M concentration and further diluted in a serial manner in the culture medium. Nine concentrations ranging from 10 nM to 100 µM were tested in sextuplicate within the assay. Evaluation of the cell viability was conducted after 72 h of exposure to the compound by means of MTT assay.
A general note: Formazan colour is commonly taken as a measure of viable cells.

Another assay concerns DLD-1. The experiment in a line: MTT viability assay, DLD-1. The assay is classed as cell-based, human. Particulars: TP53 mutant, mean of six replicates of one experiment, read-out: IC50 Cancer Cell Lines (C) DLD-1. The method, then: as §1, §2
For assay [1], the system named is Cancer Cell Lines (LoVo, HCT-116^+/+, HCT-116^-/-, HT-29, DLD-1). The experiment in a line: MTT viability assay, mean over the five colon cancer cell lines and ratio to CoN. The assay is classed as cell-based, human. Particulars: for Ratio N/C: IC50 CoN / mean IC50 cancer cells. How it is done:
as §1, §2

Another assay relates to HCT-116^-/-. The experiment in a line: MTT viability assay, HCT-116-/- (p53-null). The assay is classed as cell-based, human. Particulars: mean of six replicates of one experiment, read-out: IC50 Cancer Cell Lines (C) HCT-116-/-. The method, then:
as §1, §2

In another assay the test system is LoVo. The experiment in a line: MTT viability assay, LoVo. Particulars: 72 h of exposure, TP53 wild type, mean of six replicates of one experiment, read-out: IC50 Cancer Cell Lines (C) LoVo. In kind it is cell-based, human. How it is done:
as §1, §2

The subject of the next assay is CoN. The experiment in a line: MTT viability assay, CoN normal colon epithelial cell line. The assay is classed as cell-based, human. As to conditions: 72 h of exposure, mean of six replicates of one experiment, read-out: IC50 Normal Cell Line (N) CoN. The method, then: as §1, §2
The subject of the next assay is HCT-116^+/+. Description: MTT viability assay, HCT-116+/+. In kind it is cell-based, human. Particulars: functional p53, mean of six replicates of one experiment, read-out: IC50 Cancer Cell Lines (C) HCT-116+/+. The method, then: as §1, §2
Assay [2] relates to HT-29 p53-deficient and HCT-116 p53 wild-type models. The arrangement: method as in PMID 21220492. Particulars: cited from earlier work.
The subject of assay [3] is subpanel of CRC cell lines. As to conditions: NCI DTD 60 cell line screen; cited from earlier work.
For a further assay, the system named is MMP-1, -2, -7, -9, -13. Description: Luminex assay of MMP secretion in HCT-116 and LoVo cell supernatants. In kind it is cell-based, human. As to conditions: 6 µM; 24 h; both cell lines (HCT-116, LoVo). An excerpt:
(§3) We ordered a customized Luminex® assay to quantify 15 targets at once from Biotechne (reference LXSAHM-15; R&D Systems, Abingdon, U.K.). The 15 targets were chosen on the basis of the literature as follows: the relevant metalloproteinases MMP-1, -2, -7, -9, -13 [49] and the cytokines associated with dismal prognosis or shorter disease-free survival period: C-C motif chemokine ligand (CCL) -4, CCL-22, Flt-3 ligand, IL-1β, IL-2, IL-6, IL-8, interferon gamma (IFNγ), vascular endothelial growth factor (VEGF), and pentraxin-3 [50]. Samples were prepared as follows: HCT-116 or LoVo cells were seeded in 6-well plates and allowed to adhere and grow until they reached 70% confluency. The culture medium was replaced by 1.5 mL of culture medium containing only 0.5% of FBS with or without the compounds to be tested (NAR at 80 nM, LYC at 6 µM, and HAE at 6 µM). After 24 h of treatment, supernatants were collected, aliquoted, and kept frozen at −80 °C. Three independent series of samples were prepared. […] We thus decided to concentrate several aliquots of our supernatant samples by centrifugation of 500 µL of supernatant with Amicon Ultra 0.5 mL filters characterized by a 3 kDa cut-off (UFC500324; Millipore, Merck, Hoeilaart, Belgium) leading to a final volume of 150 µL (3.3 times concentrated). The Luminex® assay was conducted according to manufacturer’s recommendations. Data were collected on a Bioplex-200 (Bio-Rad, Temse, Belgium).

The next assay relates to VEGF. The experiment in a line: Luminex assay of VEGF in HCT-116 and LoVo cell supernatants. The assay is classed as cell-based, human. Particulars: 6 µM; 24 h; both cell lines.
From the text: as §3, with “Data were collected on a Bioplex-200 (Bio-Rad, Temse, Belgium).” left out

A further assay relates to IL-8. Description: Luminex assay of IL-8 in HCT-116 and LoVo cell supernatants. In kind it is cell-based, human. As to conditions: LYC 6 µM; 24 h; both cellular models.
From the text: as §3, with “Data were collected on a Bioplex-200 (Bio-Rad, Temse, Belgium).” left out

For a further assay, the system named is HCT-116 cells. The experiment in a line: Invasion assay, Matrigel-coated Boyden chambers, HCT-116. As to conditions: 1.5 µM, not dose-dependent. The assay is classed as cell-based, human. The method, then:
Prior to seeding HCT-116 cells in the invasion chambers, the medium was removed and cells were washed twice with phosphate buffered saline and incubated in DMEM lacking FBS for 48 h before seeding at a density of 1 × 10^5 cells/well into the upper portion of Matrigel-coated invasion chambers (Corning Biocoat, Corning, NY, USA), as described previously by our group in [47, 48]. The upper portion of each chamber contained cells suspended in serum-free DMEM containing DMSO vehicle alone or increasing concentrations of the Amaryllidaceae alkaloids NAR, LYC, and HAE. […] The lower portion of each chamber contained DMEM supplemented with 10% FBS. The FBS served as a chemoattractant. A polyethylene terephthalate (PET) membrane, containing 8 μm pores and coated with Matrigel basement membrane matrix, separated the upper and lower portions of the invasion chamber. After 24 h, chambers were removed and the cells that had not invaded were removed from within the chamber using a cotton swab. The cells that had invaded through and adhered to the bottom of the PET membrane separating the chambers were fixed with methanol and stained with 0.5% crystal violet (Sigma-Aldrich, St. Louis, MO, USA). Five random images were taken of the bottom of each membrane using a Cytation 5 Cell Imaging Multi-Mode Reader (Winooski, VT, USA). The cells in each image were counted using Image J (NIH, Bethesda, MD, USA).
To correct for the inhibitory effects of the Amaryllidaceae alkaloids on cell proliferation, cells from the same biological repeat were seeded in parallel in 24-well tissue culture plates at a density of 1 × 10^5 cells/well in DMEM containing 5% FBS (the average of the FBS concentrations in the upper and lower chambers) and supplemented with vehicle or increasing concentrations of the alkaloids. These wells were not coated with Matrigel. The medium was removed, and the adherent cells were trypsinized and counted 24 h after treatment using a hemocytometer. To compare cell invasion across treatments, cell invasion was corrected for adherent cell proliferation and expressed as % vehicle control.

For the next assay, the system named is LoVo cells. Description: Invasion assay, Matrigel-coated Boyden chambers, LoVo. In kind it is cell-based, human. Particulars: 6 µM, 24 h, corrected for adherent cells.
The mark [4] stands for this setting: Homo sapiens, HT-29, 72 h of exposure.
[5] abbreviates: Homo sapiens, DLD-1, 72 h of exposure.
[6] abbreviates: Homo sapiens, mean over five cancer cell lines, MTT, 72 h, read-out: Mean IC50 Cancer Cells.
Setting [7] is: Homo sapiens, HCT-116, 72 h of exposure.
The mark [8] stands for this setting: Homo sapiens, after 72 h of exposure, regardless of TP53 status, read-out: IC50s against all cancer cell lines.

The text below walks through data of article PMC9496155, “Amaryllidaceae Alkaloids Decrease the Proliferation, Invasion, and Secretion of Clinically Relevant Cytokines by Cultured Human Colon Cancer Cells” (Biomolecules, 2022).

Read-outs that look alike come from different tables or passages of the source. Some results are limits rather than exact numbers.

For orientation: GI50 means the concentration at which growth is held to half of that of the control.

Take `N.N.[Cl][Pt][Cl]` [Cisplatin, cisplatin, reference compound]: the IC50 in the assay on HT-29 (72 h of exposure) was determined as 22.1 µM; with DLD-1 (72 h of exposure) it was 14.8 µM; in [1] (mean over five cancer cell lines, MTT, 72 h, read-out: Mean IC50 Cancer Cells), 13.5 µM; with HCT-116^-/- (72 h of exposure) it was 17.5 µM; in the assay with LoVo it was 8.4 µM; in the assay with CoN it was 67 µM. Also, the IC50 in the assay on HCT-116^+/+ (72 h of exposure) is 4.5 µM. Also, the “Ratio N/C” value in assay [1] is 5. Moreover, in assay [1] (mean IC50s of cancer cell lines vs CoN cell line), the “times less toxic toward non-cancerous cells” value turned out to be 5 times.

For `O=C1N[C@H]2[C@H](O)[C@H](O)[C@@H](O)[C@H](O)[C@@H]2c2cc3c(c(O)c21)OCO3` [PANC, pancratistatin], the IC50 in the assay with HT-29 (setting [4]) is 0.3 µM; with DLD-1 (setting [5]), 0.28 µM; in assay [1] (setting [6]) it was 0.3 µM; in assay [2], 0.1 µM; in the assay on HCT-116^-/- (setting [7]) it was 0.16 µM; with LoVo (Homo sapiens, LoVo), 0.59 µM. In addition, the IC50 came to 2.4 µM in the assay with CoN (Homo sapiens, Epithelial cell) and 0.17 µM with HCT-116^+/+ (setting [7]). Moreover, in assay [1], the “Ratio N/C” value amounted to 8. Also, the 50% growth inhibitory concentration (GI50) in assay [3] was 0.263 µM.

For the compound `CO[C@@H]1C=C[C@@]23c4cc5c(cc4CN(C[C@@H]2O)[C@H]3C1)OCO5` [HAE, haemanthamine], the IC50 was 2.5 µM in the assay on HT-29 (setting [4]); 2.4 µM with DLD-1 (setting [5]); ~3 µM in assay [1] (setting [8]); 2.7 µM in assay [1] (setting [6]); 2.2 µM in the assay on HCT-116^-/- (setting [7]); 4.6 µM with LoVo (Homo sapiens, LoVo). In addition, the IC50 is 85 µM with CoN (Homo sapiens, Epithelial cell) and 1.9 µM in the assay on HCT-116^+/+ (setting [7]). Further, the “Ratio N/C” value in assay [1] is 31. Moreover, in the assay on MMP-1, -2, -7, -9, -13, the “secretion of MMP-1, -2, and -7” value was “markedly decrease”. In addition, the GI50 in [3] is 15.8 µM.

In the case of `O[C@H]1[C@H]2c3cc4c(cc3CN3CCC(=C[C@@H]1O)[C@H]23)OCO4` [LYC, lycorine], the “VEGF levels, times decreased” value in the assay with VEGF is on record as ≤ 10 times. Moreover, the IC50 with HT-29 (setting [4]) is 3.9 µM; in the assay on DLD-1 (setting [5]), 2.9 µM; in assay [1] (setting [8]) it was ~3 µM; in assay [1] (setting [6]), 3.2 µM; in the assay with HCT-116^-/- (setting [7]), 2.6 µM; in the assay with LoVo (Homo sapiens, LoVo), 5.5 µM. In addition, the IC50 stood at 79 µM in the assay with CoN (Homo sapiens, Epithelial cell) and 1.3 µM with HCT-116^+/+ (setting [7]). In addition, the “Ratio N/C” value in assay [1] is on record as 24. In the assay on IL-8, the IL-8 secretion entry was “reduced”. In addition, the “secretion of MMP-1, -2, and -7” value with MMP-1, -2, -7, -9, -13 was “markedly decrease”. Moreover, the “invasion of HCT-116 cells” value with HCT-116 cells is “reduced”. Besides, in [3], the GI50 is 1.99 µM. The residual invasion rate in the assay on LoVo cells is on record as 37.4 ± 7.8%.
